pIC50: −log10 of the molar value.
Target: T1, human PAD4 (Homo sapiens, UniProt Q9UM07)
T1 construct: human PAD4 (NM_012387), A2P663, was PCR amplified; His-SUMO (N, cleaved yes); made in house; host or cells: E. coli BL21(DE3)
Assay: In vitro PAD4 BAEE biochemical assay
Settings: human PAD4, BAEE substrate; 5 nM PAD4, 2 mM calcium chloride, 3 mM BAEE; geometric mean of multiple experiments
How it was run: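 Ammonia release from BAEE deimination monitored by o-phthalaldehyde amine coupling (1 h, 25 °C) after EDTA stop. Final conditions: 5 nM tag-free recombinant human PAD4 (E. coli), 2 mM CaCl2, 3 mM BAEE, pH 7.6 MOPS with DTT; 30 min compound preincubation, then 2 h reaction at 25 °C.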

T1 sequence (Q9UM07 2-663): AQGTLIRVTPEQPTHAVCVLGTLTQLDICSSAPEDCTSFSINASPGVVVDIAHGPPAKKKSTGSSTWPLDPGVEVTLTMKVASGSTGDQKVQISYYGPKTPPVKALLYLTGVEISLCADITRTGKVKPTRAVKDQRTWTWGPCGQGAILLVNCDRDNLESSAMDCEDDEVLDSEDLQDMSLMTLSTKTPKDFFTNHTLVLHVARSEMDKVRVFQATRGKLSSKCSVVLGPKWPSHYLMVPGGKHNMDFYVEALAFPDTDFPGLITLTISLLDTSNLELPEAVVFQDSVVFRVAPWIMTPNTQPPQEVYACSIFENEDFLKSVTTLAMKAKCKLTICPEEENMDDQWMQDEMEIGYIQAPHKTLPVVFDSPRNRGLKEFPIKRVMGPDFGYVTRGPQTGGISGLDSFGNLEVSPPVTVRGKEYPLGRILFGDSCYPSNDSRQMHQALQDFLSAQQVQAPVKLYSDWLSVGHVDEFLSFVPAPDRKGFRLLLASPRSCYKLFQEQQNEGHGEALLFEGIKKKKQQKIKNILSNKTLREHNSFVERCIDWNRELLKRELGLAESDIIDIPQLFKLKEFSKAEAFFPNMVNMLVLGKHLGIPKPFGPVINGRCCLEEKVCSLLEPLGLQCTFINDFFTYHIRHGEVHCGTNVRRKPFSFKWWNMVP

pIC50	SMILES
6.77	CCc1ccc2cc(-c3nc4cc(C(=O)N5[C@H]6CC[C@@H]5[C@H](N)C6)cc(OC)n4c3C)n(CCC3CC3)c2n1 [Example 505, [(1~{R},2~{R},4~{S})-2-amino-7-azabicyclo [2.2.1]heptan-7-yl]-[2-[1-(2-cyclopropylethyl)-6-ethylpyrrolo[2,3-b]pyridin-2-yl]-5-methoxy-3-methylimidazo[1,2-a]pyridin-7-yl]methanone]
7.16	COc1cc(C(=O)N2[C@H]3CC[C@@H]2[C@H](N)C3)cc2nc(-c3cc4ccc([C@@H]5CCNC(=O)C5)nc4n3CC3CC3)c(C)n12 [Example 555, (4~{R})-4-[2-[7-[(1~{R},2~{R},4~{S})-2-amino-7-azabicyclo[2.2.1]heptane-7-carbonyl]-5-methoxy-3-methylimidazo [1,2-a]pyridin-2-yl]-1-(cyclopropylmethyl)pyrrolo [2,3-b]pyridin-6-yl]piperidin-2-one]
7.25	COc1cc(C(=O)N2[C@H]3CC[C@@H]2[C@H](N)C3)cc2nc(-c3cc4ccc([C@@H](C)NC(=O)C56CC(Cl)(C5)C6)nc4n3CC3CC3)c(C)n12 [Example 133, ~{N}-[(1~{R})-1-[2-[7-[(1~{R},2~{R},4~{S})-2-amino-7-azabicyclo[2.2.1]heptane-7-carbonyl]-5-methoxy-3-methylimidazo [1,2-a]pyridin-2-yl]-1-(cyclopropylmethyl)pyrrolo [2,3-b]pyridin-6-yl]ethyl]-3-chlorobicyclo[1.1.1]pentane-1-carboxamide]
7.42	COc1cc(C(=O)N2[C@H]3CC[C@@H]2[C@H](N)C3)cc2nc(-c3cc4ccc([C@@H](C)NC(=O)[C@H](C)O)nc4n3CC3CC3)c(C)n12 [Example 94, (2~{S})-~{N}-[(1~{R})-1-[2-[7-[(1~{R},2~{R},4~{S})-2-amino-7-azabicyclo [2.2.1]heptane-7-carbonyl]-5-methoxy-3-methylimidazo [1,2-a]pyridin-2-yl]-1-(cyclopropylmethyl)pyrrolo [2,3-b]pyridin-6-yl]ethyl]-2-hydroxypropanamide]
7.11	COc1cc(C(=O)N2[C@H]3CC[C@@H]2[C@H](N)C3)cc2nc(-c3cc4ccc([C@@H](C)NC(=O)c5cccc(C#N)c5)nc4n3CC3CC3)c(C)n12 [Example 122, ~{N}-[(1~{R})-1-[2-[7-[(1~{R},2~{R},4~{S})-2-amino-7-azabicyclo[2.2.1]heptane-7-carbonyl]-5-methoxy-3-methylimidazo [1,2-a]pyridin-2-yl]-1-(cyclopropylmethyl)pyrrolo [2,3-b]pyridin-6-yl]ethyl]-3-cyanobenzamide]
6.84	COc1cc(C(=O)N2CCC[C@@H](N)[C@H]2C)cc2nc(-c3cc4ccc(N(C(F)F)S(C)(=O)=O)nc4n3CC3CC3)c(C)n12 [Example 411, ~{N}-[2-[7-[(2~{R},3~{R})-3-amino-2-methylpiperidine-1-carbonyl]-5-methoxy-3-methylimidazo[1,2-a]pyridin-2-yl]-1-(cyclopropylmethyl)pyrrolo [2,3-b]pyridin-6-yl]-~{N}-(difluoromethyl) methanesulfonamide]
6.38	COc1cc(C(=O)N2CC[C@H]3OCCCN[C@H]3C2)cc2nc(-c3cc4ccc(N(C(F)F)S(C)(=O)=O)nc4n3CC3CC3)c(C)n12 [Example 359]
7.51	COc1cc(C(=O)N2[C@H]3CC[C@@H]2[C@H](N)C3)cc2nc(-c3cc4ccc([C@@H](C)NC(=O)C5(O)CC5)nc4n3CC3CC3)c(C)n12 [Example 97, ~{N}-[(1~{R})-1-[2-[7-[(1~{R},2~{R},4~{S})-2-amino-7-azabicyclo[2.2.1]heptane-7-carbonyl]-5-methoxy-3-methylimidazo [1,2-a]pyridin-2-yl]-1-(cyclopropylmethyl)pyrrolo [2,3-b]pyridin-6-yl]ethyl]-1-hydroxycyclopropane-1-carboxamide]
5.75	Cc1c(-c2cc3ccc(N(C(F)F)S(C)(=O)=O)nc3n2CC2CC2)nc2cc(C(=O)N3CCC[C@@H](N)C3)cc(C(F)F)n12 [Example 423, ~{N}-[2-[7-[(3~{R})-3-aminopiperidine-1-carbonyl]-5-(difluoromethyl)-3-methylimidazo[1,2-a]pyridin-2-yl]-1-(cyclopropylmethyl)pyrrolo [2,3-b]pyridin-6-yl]-~{N}-(difluoromethyl) methanesulfonamide]

Second part, the compound before the results:

SMILES	pIC50
COc1cc(C(=O)N2CCC[C@@H](N)C2)cc2nc(-c3cc4ccc(-c5cccnc5N5CCOCC5)nc4n3CC3CC3)c(C)n12 [Example 606, [(3~{R})-3-aminopiperidin-1-yl]-[2-[1-(cyclopropylmethyl)-6-(2-morpholin-4-ylpyridin-3-yl)pyrrolo[2,3-b]pyridin-2-yl]-5-methoxy-3-methylimidazo[1,2-a]pyridin-7-yl]methanone]	6.43
COc1cc(C(=O)N2C[C@H]3CC[C@@H]2[C@@H]3N)cc2nc(-c3cc4ccc(N(C)S(C)(=O)=O)nc4n3C)c(C)n12 [Example 493, N-[2-[7-[(1R,4R, 7R)-7-amino-2-azabicyclo [2.2.1]heptane-2-carbonyl]-5-methoxy-3-methyl-imidazo[1,2-a]pyridin-2-yl]-1-methyl-pyrrolo[2,3-b]pyridin-6-yl]-N-methyl-methanesulfonamide]	5.60
COc1cc(C(=O)N2C[C@H]3C[C@H](OC)[C@@H]2[C@@H]3N)cc2nc(-c3cc4ccc(N(C(F)F)S(C)(=O)=O)nc4n3CC3CC3)c(C)n12 [Example 372, N-[2-[7-[(1S,4R,6S,7R)-7-amino-6-methoxy-2-azabicyclo[2.2.1]heptane-2-carbonyl]-5-methoxy-3-methyl-imidazo [1,2-a]pyridin-2-yl]-1-(cyclopropylmethyl)pyrrolo [2,3-b]pyridin-6-yl]-N-(difluoromethyl) methanesulfonamide]	5.70
COc1cc(C(=O)N2C[C@H]3C[C@H](O)[C@@H]2[C@@H]3N)cc2nc(-c3cc4ccc(N(C(F)F)S(C)(=O)=O)nc4n3CC3CC3)c(C)n12 [Example 378, N-[2-[7-[(1S,4R,6S,7R)-7-amino-6-hydroxy-2-azabicyclo[2.2.1]heptane-2-carbonyl]-5-methoxy-3-methyl-imidazo [1,2-a]pyridin-2-yl]-1-(cyclopropylmethyl)pyrrolo [2,3-b]pyridin-6-yl]-N-(difluoromethyl) methanesulfonamide]	6.47
COc1cc(C(=O)N2C[C@H]3C[C@H](O)[C@@H]2[C@@H]3N)cc2nc(-c3cc4ccc([C@@H](C)NC(=O)C(C)(C)C)nc4n3CC3CC3)c(C)n12 [Example 173, N-((R)-1-(2-(7-((1S,4R,6S,7R)-7-amino-6-hydroxy-2-azabicyclo [2.2.1]heptane-2-carbonyl)-5-methoxy-3-methylimidazo [1,2-a]pyridin-2-yl)-1-(cyclopropylmethyl)-1H-pyrrolo[2,3-b]pyridin-6-yl)ethyl)pivalamide]	6.30
COc1cc(C(=O)N2[C@H]3CC[C@@H]2[C@H](N)C3)cc2nc(-c3cc4ccc([C@@H](C)NC(C)=O)nc4n3CC3CC3)c(C3CC3)n12 [Example 178, ~{N}-[(1~{R})-1-[2-[7-[(1~{R},2~{R},4~{S})-2-amino-7-azabicyclo[2.2.1]heptane-7-carbonyl]-3-cyclopropyl-5-methoxyimidazo [1,2-a]pyridin-2-yl]-1-(cyclopropylmethyl)pyrrolo [2,3-b]pyridin-6-yl]ethyl] acetamide]	7.05
COc1cc(C(=O)N2C[C@H](N)CC[C@@H]2C)cc2nc(-c3cc4ccc(N(C)S(C)(=O)=O)nc4n3CC3CC3)c(C)n12 [Example 481, N-(2-(7-((2S,5R)-5-amino-2-methylpiperidine-1-carbonyl)-5-methoxy-3-methylimidazo[1,2-a]pyridin-2-yl)-1-(cyclopropylmethyl)-1H-pyrrolo[2,3-b]pyridin-6-yl)-N-methylmethanesulfonamide]	6.82
[2H]C([2H])([2H])N(c1ccc2cc(-c3nc4cc(C(=O)N5C[C@H]6CC[C@@H]5[C@@H]6N)cc(OC)n4c3C)n(CC)c2n1)S(C)(=O)=O [Example 366, N-[2-[7-[(1R,4R,7R)-7-amino-2-azabicyclo[2.2.1]heptane-2-carbonyl]-5-methoxy-3-methyl-imidazo[1,2-a]pyridin-2-yl]-1-ethyl-pyrrolo [2,3-b]pyridin-6-yl]-N-(trideuteriomethyl) methanesulfonamide]	6.30
COc1cc(C(=O)N2C[C@H]3CC[C@@H]2[C@@H](N)C3)cc2nc(-c3cc4ccc(N(C(F)F)S(C)(=O)=O)nc4n3CC3CC3)c(C)n12 [Example 368, ~{N}-[2-[7-[(1~{R},4~{S}, 6~{S})-6-amino-2-azabicyclo[2.2.2]octane-2-carbonyl]-5-methoxy-3-methylimidazo[1,2-a]pyridin-2-yl]-1-(cyclopropylmethyl)pyrrolo [2,3-b]pyridin-6-yl]-~{N}-(difluoromethyl) methanesulfonamide]	4.36
COc1cc(C(=O)N2CCC3(CCCNC3)C2)cc2nc(-c3cc4ccc([C@@H](C)NC(=O)C56CC(F)(C5)C6)nc4n3CC3CC3)c(C)n12 (some centres unmarked) [Example 5, ~{N}-[(1~{R})-1-[1-(cyclopropylmethyl)-2-[7-(2,9-diazaspiro[4.5]decane-2-carbonyl)-5-methoxy-3-methylimidazo[1,2-a]pyridin-2-yl]pyrrolo [2,3-b]pyridin-6-yl]ethyl]-3-fluorobicyclo[1.1.1] pentane-1-carboxamide]	4.72
COc1cc(C(=O)N2C[C@@H]3CCN[C@@H]3C2)cc2nc(-c3cc4ccc([C@@H](C)NC(=O)C56CC(F)(C5)C6)nc4n3CC3CC3)c(C)n12 [Example 20, ~{N}-[(1~{R})-1-[2-[7-[(3~{a}~{S}, 6~{a}~{S})-2,3,3~{a}, 4,6,6~{a}-hexahydro-1~{H}-pyrrolo[3,4-b]pyrrole-5-carbonyl]-5-methoxy-3-methylimidazo[1,2-a]pyridin-2-yl]-1-(cyclopropylmethyl)pyrrolo[2,3-b]pyridin-6-yl]ethyl]-3-fluorobicyclo[1.1.1] pentane-1-carboxamide]	5.41
